Test system: panel of 235 cell lines representing 14 tumor lineages
Assay: ATPlite growth inhibition screening of a human cancer cell line panel (Horizon Discovery)
Assay type: cell-based
Description: A 72 hour ATPlite assay (except for DLD-1 and HCT116 cell lines, for which a 120 hour assay was performed) with growth inhibition analysis was performed in two parts at Horizon Discovery Ltd, UK. Samples were tested as four replicates in 384-well assay plates. Serial dilution series of antibody, starting from 0.072 μM final concentration was used for all tested cell lines. For TRAIL (Invitrogen; Cat # PHC1634) serial dilution series starting from 0.01 μM final concentration for the cell lines tested in the first part and 0.17 μM final concentration for the cell lines tested in the second part of the screening was used.

[1] = 59M, ovary cancer, screening #1
[2] = 769-P, kidney cancer, screening #2
[3] = 786-0, kidney cancer, screening #2
[4] = 5637, bladder cancer, screening #2
[5] = A172, neural tissue cancer, screening #2
[6] = ACHN, kidney cancer, screening #2
[7] = CAL-54, kidney cancer, screening #1
[8] = COLO-783, melanoma, screening #1
[9] = COR-L23-CPR, NSCLC, screening #1
[10] = COV434, ovary cancer, screening #1
[11] = COV644, ovary cancer, screening #1
[12] = G-402, kidney cancer, screening #2
[13] = HCC1937, breast cancer (TNBC), screening #2
[14] = HT-1197, bladder cancer, screening #2
[15] = HT-1376, bladder cancer, screening #2
[16] = Hs 294T, melanoma, screening #1
[17] = HuP-T3, pancreatic cancer, screening #1
[18] = J82, bladder cancer, screening #1
[19] = JHOM-1, ovary cancer, screening #1

IC50 [1]: 0.049 nM
IC50 [2]: 1.94 nM
IC50 [3]: 288 nM
IC50 [4]: 0.06 nM
IC50 [5]: 0.029 nM
IC50 (A498, kidney cancer, screening #2): 0.079 nM
IC50 (A704, kidney cancer, screening #1): 3.44 nM
IC50 [6]: 0.356 nM
IC50 (BT-20, breast cancer (TNBC), screening #2): 0.089 nM
IC50 (BT-549, breast cancer (TNBC), screening #2): 0.285 nM
IC50 [7]: 0.268 nM
IC50 (CL-11, colorectal cancer, screening #1): 1.32 nM
IC50 (CL-34, colorectal cancer, screening #1): 0.024 nM
IC50 (CL-40, colorectal cancer, screening #1): 1.98 nM
IC50 (COLO-201, colorectal cancer, screening #1): 0.168 nM
IC50 (COLO-205, colorectal cancer, screening #1): 2.27 nM
IC50 (COLO-206F, colorectal cancer, screening #1): 0.146 nM
IC50 [8]: 0.224 nM
IC50 [9]: 5.48 nM
IC50 [10]: 0.395 nM
IC50 [11]: 0.271 nM
IC50 (DBTRG-05MG, neural tissue cancer, screening #2): 0.087 nM
IC50 (DLD-1, colorectal cancer, screening #1): 3.95 nM
IC50 (DLD-1_BRCA2 (−/−), colorectal cancer, screening #1): 0.516 nM
IC50 (DU-4475, breast cancer (TNBC), screening #2): 0.079 nM
IC50 (DV-90, NSCLC, screening #1): 1.19 nM
IC50 (FTC-238, head and neck cancer, screening #1): 3.92 nM
IC50 (G-401, kidney cancer, screening #2): 0.068 nM
IC50 [12]: 0.173 nM
IC50 (GP2D, colorectal cancer, screening #1): 0.003 nM
IC50 (GSU, gastric cancer, screening #1): 0.454 nM
IC50 (H4, neural tissue cancer, screening #2): 0.007 nM
IC50 (HCC38, breast cancer (TNBC), screening #2): 0.08 nM
IC50 (HCC1187, breast cancer (TNBC), screening #2): 0.066 nM
IC50 (HCC1806, breast cancer (TNBC), screening #2): 0.05 nM
IC50 [13]: 0.647 nM
IC50 (HCT-15, colorectal cancer, screening #1): 0.129 nM
IC50 (HCT-116_ARID1A (Q456*/Q456*), colorectal cancer, screening #1): 10.5 nM
IC50 (HCT-116_KRAS (+/−), colorectal cancer, screening #1): 0.253 nM
IC50 (HCT-116_PIK3A (+/−)KO mt H1047R, colorectal cancer, screening #1): 1.25 nM
IC50 (HEC-108, endometrial cancer, screening #1): 1.48 nM
IC50 (HEC-265, endometrial cancer, screening #1): 0.021 nM
IC50 (HLE, liver cancer, screening #1): 8.36 nM
IC50 (HMC-1-8, breast cancer (TNBC), screening #2): 0.232 nM
IC50 (HRT-186, colorectal cancer, screening #1): 9.24 nM
IC50 (HT55, colorectal cancer, screening #1): 0.11 nM
IC50 (HT-115, colorectal cancer, screening #1): 0.107 nM
IC50 [14]: 0.167 nM
IC50 [15]: 160 nM
IC50 [16]: 0.019 nM
IC50 [17]: 0.223 nM
IC50 [18]: 33.6 nM
IC50 [19]: 0.596 nM
IC50 (JHUEM-2, endometrial cancer, screening #1): 0.165 nM
IC50 (KNS-81, neural tissue cancer, screening #2): 0.013 nM
Substance: TRAIL: natural DR5 ligand, recombinant human TRAIL/APO-2L
Max Inhibition [1]: 98.5%
Max Inhibition [2]: 39.4%
Max Inhibition [3]: 2.6%
Max Inhibition [4]: 99.1%
Max Inhibition [5]: 98.2%
Max Inhibition (A375, melanoma, screening #1): 47.1%
Max Inhibition [6]: 32.4%
Max Inhibition (BEN, NSCLC, screening #1): 8.1%
Max Inhibition (BxPC-3, pancreatic cancer, screening #1): 46.5%
Max Inhibition (CAKI-2, kidney cancer, screening #1): 5.7%
Max Inhibition (CAL-12T, NSCLC, screening #1): 11.9%
Max Inhibition [7]: 71.6%
Max Inhibition (CAPAN-2, pancreatic cancer, screening #1): 4.8%
Max Inhibition (CFPAC-1, pancreatic cancer, screening #1): 13.2%
Max Inhibition (COLO858, melanoma, screening #1): 12.6%
Max Inhibition (COLO-679, melanoma, screening #1): 24.9%
Max Inhibition (COLO-699, NSCLC, screening #1): 2.8%
Max Inhibition [8]: 80.9%
Max Inhibition (COLO-800, melanoma, screening #1): 33.5%
Max Inhibition (COLO-818, melanoma, screening #1): 7.8%
Max Inhibition (COLO-849, melanoma, screening #1): 17.6%
Max Inhibition [9]: 58.4%
Max Inhibition (COR-L105, NSCLC, screening #1): 35.7%
Max Inhibition [10]: 73.1%
Max Inhibition (COV504, ovary cancer, screening #1): 11.7%
Max Inhibition [11]: 74.9%
Max Inhibition (Calu-1, NSCLC, screening #1): 22.0%
Max Inhibition (DV-90, NSCLC, screening #1): 96.1%
Max Inhibition (EPLC-272H, NSCLC, screening #1): 51.7%
Max Inhibition [12]: 15.0%
IC50 (HCC70, breast cancer (TNBC), screening #2): 347 nM
Max Inhibition [13]: 28.5%
Max Inhibition (HLC-1, NSCLC, screening #1): 32.6%
Max Inhibition (HMCB, melanoma, screening #1): 1.0%
Max Inhibition (HOP-62, NSCLC, screening #1): 55.6%
Max Inhibition (HPAF-II, pancreatic cancer, screening #1): 13.3%
Max Inhibition [14]: 31.8%
Max Inhibition [15]: 10.6%
Max Inhibition [16]: 91.1%
Max Inhibition (Hs 936.T, melanoma, screening #1): 20.7%
Max Inhibition [17]: 88.4%
Max Inhibition (IGR-1, melanoma, screening #1): 23.3%
Max Inhibition (IGR-37, melanoma, screening #1): 18.0%
Max Inhibition (IGR-39, melanoma, screening #1): 20.1%
Max Inhibition (IPC-298, melanoma, screening #1): 5.7%
Max Inhibition [18]: 11.5%
Max Inhibition (JHOC-5, ovary cancer, screening #1): 18.4%
Max Inhibition [19]: 58.1%
Max Inhibition (JHOM-2B, ovary cancer, screening #1): 21.7%
Max Inhibition (JHOS-4, ovary cancer, screening #1): 12.5%
Max Inhibition (KLM-1, pancreatic cancer, screening #1): 12.7%
Max Inhibition (KP-2, pancreatic cancer, screening #1): 3.9%
Max Inhibition (KP-3, pancreatic cancer, screening #1): 23.5%
Max Inhibition (KP-4, pancreatic cancer, screening #1): 23.6%

— patent publication US20200247897A1, “THERAPEUTIC ANTIBODIES BASED ON MUTATED IGG HEXAMERS” (GENMAB B.V., priority 2017, published 2020)
